Test results: patent US7781565B2 (priority 2006, dated 2010)
“Also recorded” adds a separate entry of the source.

These substances were tested on NCI-60 cell lines.
Type: cell-based, human

Substance	Cell Line with which the peptide (and its tripeptide motif) is associated	Cell Line (NCI-60 cell line the peptide and its motif are associated with)	Cell Line the peptide is associated with (peptide recovered from phage library selection on this NCI-60 cell line)	Cell Line (NCI-60 cell line the peptide is associated with)
PAASRLL	RPMI-8226-Leukemia	–	–	–
QGSSNSV	–	IGROV1 Ovarian	–	–
LEGVRLF	Hop-62-Lung	–	–	–
TCGGRSY	–	SK-MEL-2 Melanoma	–	–
GYLGRLP	–	–	NCI/ADR-RES Breast	–
PYYNGVR	–	IGROV1 Ovarian	–	–
HAELVSL	–	–	–	KM-12C Colon
ESARGAL	–	OVCAR-4 Ovarian	–	–
ASPPLRS	–	A498 Renal	–	–
WGSSTVR	H322-Lung	–	–	–
VYGWGGS	–	DU-145 Prostate	–	–
LLSLDPG	–	SK-MEL-2 Melanoma	–	–
HVRGRVA	–	SK-MEL-5 Melanoma	–	–
GVLGCDG	–	PC3 Prostate	–	–
QLPGLLR	–	–	–	SNB-75 CNS
DFTLGSS	–	–	MDA-MB-231 Breast	–
GGLSRSN	–	–	–	SF-268 CNS
ARGRGSQ	–	PC3 Prostate	–	–
THRNRSS	SR Leukemia	–	–	–
GTLGVLS	–	UACC62 Melanoma	–	–
PRSSGPM	–	–	RXF393 Renal	–
CTAGSVS	–	IGROV1 Ovarian	–	–
WWAAVPG	–	–	SN12C Renal	–

Substance	Cell Line with which the peptide (and its tripeptide motif) is associated	Cell Line (NCI-60 cell line the peptide and its motif are associated with)	Cell Line the peptide is associated with (peptide recovered from phage library selection on this NCI-60 cell line)	Cell Line (NCI-60 cell line the peptide is associated with)
RGVGWAK	H322-Lung	–	–	–
RVGRGVL	–	–	–	SF-268 CNS
LIGPGGR	H322-Lung	–	–	–
DTLRSQW	–	–	–	HCT-15 Colon
GSGRALA	–	SK-MEL-2 Melanoma	–	–
FTRGAAS	–	SK-MEL-2 Melanoma	–	–
VGAVYFL	H322-Lung	–	–	–
RGGLPRG	–	–	–	HCT-15 Colon
LSFSRGS	HL-60-Leukemia	–	–	–
GAVRARL	SR Leukemia	–	–	–
RASCALT	HL-60-Leukemia	–	–	–
SRLRAGS	–	–	T-47D Breast	–
QAGSFLR	EKVX-Lung	–	–	–
SSGGRSS	–	–	–	MALME-3M Melanoma
GGSKGSA	–	UACC 257 Melanoma	–	–
GGSGELG	H23-Lung	–	–	–
ALPGGGR	–	OVCAR-5 Ovarian	–	–
GGRVLGQ	–	OVCAR-4 Ovarian	–	–
SLLRRLE	–	–	TK-10 Renal	–
SPGRVAD	–	IGROV1 Ovarian	–	–
WRLAGLG	–	–	NCI/ADR-RES Breast	–
RAAVIHT	–	–	–	MALME-3M Melanoma
AFKTGGS	–	M14 Melanoma	–	–

Substance	Cell Line with which the peptide (and its tripeptide motif) is associated	Cell Line (NCI-60 cell line the peptide and its motif are associated with)	Cell Line the peptide is associated with (peptide recovered from phage library selection on this NCI-60 cell line)	Cell Line (NCI-60 cell line the peptide is associated with)
TLGRLSS	–	DU-145 Prostate	–	–
VGRGRLH	EKVX-Lung	–	–	–
VGLRDWG	–	–	–	SW620-Colon
CRRSSLL	–	SK-MEL-2 Melanoma	–	–
RRGSVAE	–	–	HS 578 T Breast	–
LHAGSSV	–	–	MDA-MB-231 Breast	–
LSAVSVK	–	SK-MEL-5 Melanoma	–	–
AAVWWAA	–	DU-145 Prostate	–	–
RRSGAGG	–	–	UO31 Renal	–
PWGAGVR	–	–	BT-549 Breast	–
VGSSHGL	–	SK-MEL-28 Melanoma	–	–
GEGGSGG	–	OVCAR-5 Ovarian	–	–
HIGLGGL	–	–	–	SF-295 CNS
RALGLVS	CCRF-CEM Leukemia	–	–	–
RYRVSVY	–	–	–	KM-12C Colon
AVRGGRP	Hop-92-Lung	–	–	–
RYSMASL	–	SK-MEL-5 Melanoma	–	–
FDRAVAN	Hop-62-Lung	–	–	–
AAVWQMK	–	–	–	SNB-19 CNS; also recorded: SF-539 CNS
TRGDAVS	–	–	–	SF-295 CNS
AVGVSAA	–	–	MDA-MB-231 Breast	–
RASCVWA	–	–	MCF-7 Breast	–
TFGKGGL	HL-60-Leukemia	–	–	–

Substance	Cell Line with which the peptide (and its tripeptide motif) is associated	Cell Line (NCI-60 cell line the peptide and its motif are associated with)	Cell Line the peptide is associated with (peptide recovered from phage library selection on this NCI-60 cell line)	Cell Line (NCI-60 cell line the peptide is associated with)
RAVEMGT	H460-Lung	–	–	–
EGLVVFE	–	–	–	SNB-19 CNS; also recorded: SF-539 CNS
GPGGSKR	–	–	SN12C Renal	–
RLWGSVV	–	SK-OV-3-3 Ovarian	–	–
GLGGGGS	–	–	–	SF-268 CNS
YGESLLR	–	–	–	SNB-75 CNS
VMPGSVV	–	–	–	SF-295 CNS
PRHRASQ	–	OVCAR-8 Ovarian	–	–
GLGVSGV	Hop-62-Lung	–	–	–
GPSFDAK	–	–	RXF393 Renal	–
DWGRSSF	A549-Lung	–	–	–
PVGGVLL	A549-Lung	–	–	–
PLRSFDS	H23-Lung	–	–	–
GSSRPSI	–	–	–	HCT-15 Colon
GLRVYEP	–	PC3 Prostate	–	–
RRVSCDL	Hop-62-Lung	–	–	–
ASGRVAN	–	–	–	HCT-116 Colon
RGRLEVP	Molt-4-Leukemia	–	–	–
PVRRVSS	–	–	HS 578 T Breast	–
PGGSRHA	–	SK-MEL-5 Melanoma	–	–
LIRAVSA	H460-Lung	–	–	–
GVWLRGS	–	–	RXF393 Renal	–
DSGLVGG	–	–	–	LOX-IMVI Melanoma

Substance	Cell Line with which the peptide (and its tripeptide motif) is associated	Cell Line (NCI-60 cell line the peptide and its motif are associated with)	Cell Line the peptide is associated with (peptide recovered from phage library selection on this NCI-60 cell line)	Cell Line (NCI-60 cell line the peptide is associated with)
DGVSPLW	–	–	TK-10 Renal	–
VAASVRE	–	OVCAR-3 Ovarian	–	–
PVGAAVA	–	UACC62 Melanoma	–	–
TVGSGCL	–	–	–	HCT-116 Colon
LLRGLEL	HL-60-Leukemia	–	–	–
LLVSLSS	–	–	RXF393 Renal	–
LRYNLRS	RPMI-8226-Leukemia	–	–	–
WVGPSGG	–	SK-MEL-5 Melanoma	–	–
LGLRGGA	–	–	–	SF-268 CNS
QDRVSRS	Hop-92-Lung	–	–	–
HAAVMSL	–	–	–	HCT-15 Colon
GRIRLSF	–	–	RXF393 Renal	–
PRGSLFA	–	–	UO31 Renal	–
GLRPHGA	–	UACC 257 Melanoma	–	–
GAYRLVS	CCRF-CEM Leukemia	–	–	–
GRLDAFG	–	SK-MEL-5 Melanoma	–	–
ASEGGRA	–	SK-OV-3-3 Ovarian	–	–
SVVGVST	–	–	–	HCT-15 Colon
GPSVLDI	–	OVCAR-8 Ovarian	–	–
PSVGVRA	H322-Lung	–	–	–
VGPSVHL	–	786-0 Renal	–	–
LGGLSPH	H322-Lung	–	–	–
GRPLGGR	–	–	–	HCT-15 Colon

Substance	Cell Line with which the peptide (and its tripeptide motif) is associated	Cell Line (NCI-60 cell line the peptide and its motif are associated with)	Cell Line the peptide is associated with (peptide recovered from phage library selection on this NCI-60 cell line)	Cell Line (NCI-60 cell line the peptide is associated with)
YAAGGST	–	A498 Renal	A498 Renal	–
SRASGHG	–	–	–	HT-29 Colon
AGSPLAK	H23-Lung	–	–	–
RGSVASA	–	–	–	HT-29 Colon
LLSPRGT	–	–	–	SF-295 CNS
AAGRSRI	–	M14 Melanoma	–	–
AYYSLRS	–	–	–	KM-12C Colon
PPRAVTN	–	UACC62 Melanoma	–	–
GSSTLQW	–	–	TK-10 Renal	–
SSTRGVY	–	–	–	HT-29 Colon
GFASLLR	–	–	–	HCT-15 Colon
LLSSRRC	–	SK-MEL-2 Melanoma	–	–
RVSGDGK	–	SK-OV-3-3 Ovarian	–	–
LRARGGH	–	–	–	HT-29 Colon
WYGGRGN	–	OVCAR-4 Ovarian	–	–
SAAGLAR	–	SK-OV-3-3 Ovarian	–	–
GAGGVDV	–	786-0 Renal	–	–
PRAGGRW	EKVX-Lung	–	–	–
ALVSTIL	–	–	UO31 Renal	–
